Values quoted from earlier work in patent US20140221490A1, “METHODS OF TREATING PAIN” (Hospira, Inc., priority 2011, published 2014).
Where two headings read alike, the source gives them in different places.

Details: cited from earlier work; for Prot. bind., drug fraction bound to protein (fP): plasma; for Cmax: read-out: Cmax, maximum drug concentration in plasma, based on the drug's pharmacokinetics and administration of a normal drug dose; for K1:1, stability constant of 1:1 inclusion complex with HPβCD: literature reference

Row | SMILES | Vd, volume of distribution [L/kg] | Prot. bind., drug fraction bound to protein (fP) | Cmax [µM] | K1:1, stability constant of 1:1 inclusion complex with HPβCD | K1:1, stability constant of 1:1 inclusion complex with HPβCD (listed as fenofibrate) [M⁻¹]
1 | CC(=O)Nc1ccc(O)cc1 [Acetaminophen] | 0.95 | 20% | 50 | – | –
2 | CC(=O)Nc1nnc(S(N)(=O)=O)s1 [Acetazolamide] | 0.2 | 95% | 160 | – | –
3 | CC(=O)Oc1ccccc1C(=O)O [Acetylsalicylic acid] | 0.15 | 80% | 530 | 100^l M^−1 | –
4 | Nc1nc2c(ncn2COCCO)c(=O)[nH]1 [Acyclovir] | – | – | 7.2 | 770^2 M^−1 | –
5 | CC1(C)S[C@@H]2[C@H](NC(=O)[C@H](N)c3ccc(O)cc3)C(=O)N2[C@H]1C(=O)O [Amoxicillin] | 0.3 | 20% | 65 | – | –
6 | CCNC(=O)CCC/C=C\C[C@@H]1[C@@H](/C=C/[C@@H](O)CCc2ccccc2)[C@H](O)C[C@@H]1O [Bimatoprost] | 0.67 | 88% | 0.00019 | 1,900^i M^−1 | –
7 | CCCCN1CCCCC1C(=O)Nc1c(C)cccc1C (stereo not shown) [Bupivacaine] | 1.0 | 95% | 6.9 | 13^5 M^−1 | –
8 | NC(=O)N1c2ccccc2C=Cc2ccccc21 [Carbamazepine] | 1.4 | 75% | 34 | 630^6 M^−1 | –
9 | COc1ccccc1OCCNCC(O)COc1cccc2[nH]c3ccccc3c12 (stereo not shown) [Carvedilol] | 1.7 | 98% | 400 | 580^7 M^−1 | –
10 | C=CC1=C(C(=O)O)N2C(=O)[C@@H](NC(=O)/C(=N\O)c3csc(N)n3)[C@H]2SC1 [Cefdinir] | 0.35 | 70% | 7.3 | 59^8 M^−1 | –
11 | C=CC1=C(C(=O)O)N2C(=O)[C@@H](NC(=O)/C(=N\OCC(=O)O)c3csc(N)n3)[C@H]2SC1 [Cefixime] | 1.0 | – | 360 | 1,400^9 M^−1 | –
12 | Cc1ccc(-c2cc(C(F)(F)F)nn2-c2ccc(S(N)(=O)=O)cc2)cc1 [Celecoxib] | 6.5 | 97% | 1.9 | 630^10 M^−1 | –
13 | CC(=O)OCC1=C(C(=O)O)N2C(=O)[C@@H](NC(=O)Cc3cccs3)[C@H]2SC1 [Cephalothin] | 0.26 | 80% | 76 | 70^11 M^−1 | –
14 | O=C(N[C@H](CO)[C@H](O)c1ccc([N+](=O)[O-])cc1)C(Cl)Cl [Chloramphenicol] | 0.80 | 80% | 130 | – | –
15 | CNC1=Nc2ccc(Cl)cc2C(c2ccccc2)=[N+]([O-])C1 [Chlordiazepoxide] | – | 96% | – | – | –
16 | NS(=O)(=O)c1cc(C2(O)NC(=O)c3ccccc32)ccc1Cl (stereo not shown) [Chlortalidone (chlorthalidone), chlorthalidone] | 4.0 | 75% | 19 | 115^14 M^−1 | –
17 | C[C@H]1C[C@H]2[C@@H]3CCC4=CC(=O)C=C[C@]4(C)[C@@]3(F)[C@@H](O)C[C@]2(C)[C@@]1(O)C(=O)CO [Cilest (betamethasone), betamethasone] | – | 64% | 0.29 | 3,000^16 M^−1 | –
18 | O=C(O)Cc1ccccc1Nc1c(Cl)cccc1Cl [Diclofenac Na, diclofenac sodium] | 0.17 | 99.5% | 13 | – | –
19 | Clc1ccc(COC(Cn2ccnc2)c2ccc(Cl)cc2Cl)cc1 (stereo not shown) [Econazole nitrate] | – | (96) % | 5.5 | 13^20 M^−1 | –

Row | SMILES | Vd, volume of distribution [L/kg] | Prot. bind., drug fraction bound to protein (fP) | Cmax [µM] | K1:1, stability constant of 1:1 inclusion complex with HPβCD | K1:1, stability constant of 1:1 inclusion complex with HPβCD (listed as fenofibrate) [M⁻¹]
20 | C[C@]12CC[C@@H]3c4ccc(O)cc4CC[C@H]3[C@@H]1CC[C@@H]2O [Estradiol] | 1 | 97% | 0.00053 | 2,000^22 M^−1 | –
21 | CCc1cccc2c3c([nH]c12)C(CC)(CC(=O)O)OCC3 (stereo not shown) [Etodolac] | 0.4 | 99% | 170 | – | –
22 | O=C1[C@H](CC[C@H](O)c2ccc(F)cc2)[C@@H](c2ccc(O)cc2)N1c1ccc(F)cc1 [Ezetimibe] | 1.5 | 90% | 0.012 | 1,300^23 M^−1 | –
23 | CC(C)OC(=O)C(C)(C)Oc1ccc(C(=O)c2ccc(Cl)cc2)cc1 [Fenofibrate] | 0.9 | 99% | 28 | 2^24 M^−1 | 2
24 | CNCCC(Oc1ccc(C(F)(F)F)cc1)c1ccccc1 (stereo not shown) [Fluoxetine] | 27 | 95% | 0.18 | – | –
25 | CC(C(=O)O)c1ccc(-c2ccccc2)c(F)c1 (stereo not shown) [Flurbiprofen] | 0.12 | 99% | 62 | 7,500^26 M^−1 | –
26 | CCC1=C(C)CN(C(=O)NCCc2ccc(S(=O)(=O)NC(=O)N[C@H]3CC[C@H](C)CC3)cc2)C1=O [Glimepride] | – | 99.5% | – | – | –
27 | O=C(CCCN1CCC(O)(c2ccc(Cl)cc2)CC1)c1ccc(F)cc1 [Haloperidol] | 18 | 92% | 0.088 | – | –
28 | CC(C)Cc1ccc(C(C)C(=O)O)cc1 (stereo not shown) [Ibuprofen] | – | – | 280 | 5,000^31 M^−1 | –
30 | CC(C(=O)O)c1cccc(C(=O)c2ccccc2)c1 (stereo not shown) [Ketoprofen] | 0.15 | – | – | – | –
31 | CC(=O)O[C@]1(C(C)=O)CC[C@H]2[C@@H]3C[C@H](C)C4=CC(=O)CC[C@]4(C)[C@H]3CC[C@@]21C [Medroxyprogesterone acetate] | – | 90% | 1.8 | 260^33 M^−1 | –
32 | Clc1ccc(COC(Cn2ccnc2)c2ccc(Cl)cc2Cl)c(Cl)c1 (stereo not shown) [Miconazole] | 20 | 92% | 0.029 | – | –
33 | Cc1ncc2n1-c1ccc(Cl)cc1C(c1ccccc1F)=NC2 [Midazolam] | – | 97% | – | – | –
34 | COc1ccc2cc(CCC(C)=O)ccc2c1 [Nabumetone] | 0.2 | 99% | 160 | 3,000^35 M^−1 | –
35 | COC(=O)C1=C(C)NC(C)=C(C(=O)OCCN(C)Cc2ccccc2)C1c1cccc([N+](=O)[O-])c1 (stereo not shown) [Nicardipine] | 8.3 | – | 0.53 | – | –
36 | COc1ccc2[nH]c([S+]([O-])Cc3ncc(C)c(OC)c3C)nc2c1 (stereo not shown) [Omeprazole] | 0.35 | 96% | 4.1 | 70^38 M^−1 | –
37 | Cc1nccn1CC1CCc2c(c3ccccc3n2C)C1=O (stereo not shown) [Ondansetron] | 1.7 | 75% | 0.9 | 180^39 M^−1 | –
38 | O=C(O)CCc1nc(-c2ccccc2)c(-c2ccccc2)o1 [Oxaprozin] | 0.15 | 99% | 780 | – | –
